Consider 14 molecules from patent US8222260B2, “Substituted 6-anilinopurine derivatives as inhibitors of cytokinin oxidase/dehydrogenase and preparations containing these derivatives” (Univerzita Palackego V Olomouci, priority 2007, dated 2012).

In experiment [1] the test system is osteosarcoma cell line HOS. Briefly: Calcein AM cytotoxicity assay. The conditions noted are these: Homo sapiens, 72 hours. It is filed as cell-based, human. The method in brief:
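Cells seeded at 2.500-30.000 per well, pre-incubated 24 h, then exposed 72 h at 37 °C to six 3-fold dilutions (top 166.6 μM), in triplicate. Calcein AM added to 1 μg/ml for 1 h; fluorescence gives growth inhibition, GI50 taken from dose-response curves.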

The test system of experiment [2] is breast carcinoma cell line MCF-7. Put plainly: Calcein AM cytotoxicity assay. The class given is cell-based, human. The conditions noted are these: Homo sapiens, MCF7, 72 hours.
A further experiment relates to NIH-3T3 (fibroblasts). Put plainly: Calcein AM cytotoxicity assay. The class given is cell-based, Mouse. Particulars: Mus musculus, NIH3T3, 72 hours. The method in brief: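 Cells seeded at 2.500-30.000 per well, pre-incubated 24 hours, then exposed to compound (usually six 3-fold dilutions, triplicates) for 72 hours at 37° C, 5% CO2; NIH-3T3 grown in DMEM with 10% fetal calf serum. Calcein AM added at 1 μg/ml final, fluorescence read after 1 hour. GI calculated as blank-corrected fluorescence relative to untreated control.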

Experiment [3] deals with Amaranthus caudatus cotyledon/hypocotyl explants. Briefly: Amaranthus bioassay (betacyanin content). The class given is cell-based, Amaranthus caudatus var. atropurpurea. Particulars: at the concentration with highest activity, relative to 10^−5 M kinetin. The method in brief:
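Etiolated A. caudatus cotyledon/hypocotyl explants (72 h seedlings, roots removed) incubated 48 h at 25 °C in darkness on medium with phosphate buffer pH 6.8, tyrosine and test compound. Betacyanin extracted in acetic acid, quantified as A537−A620.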

For the molecule `Clc1nc(Nc2ccccc2)c2[nH]cnc2n1` [Compound 1, 2-Chloro-6-anilinopurine], the GI50 (in experiment [1]; in experiment [2]; with NIH-3T3 (fibroblasts)) was above 167 µM throughout.

In the case of `Clc1cccc(Nc2nc(Cl)nc3nc[nH]c23)c1` [Compound 3, 2-Chloro-6-(3-chloroanilino)purine], the GI50 (in experiment [1]; in experiment [2]; in the experiment on NIH-3T3 (fibroblasts)) was above 167 µM throughout. Besides, the “Activity (%) [10^−5 mol · l^−1 K = 100%]” value in experiment [3] was found to be 166%.

With `Clc1ccc(Nc2nc(Cl)nc3[nH]cnc23)cc1` [Compound 4], the GI50 (in experiment [1]; in experiment [2]; in the experiment with NIH-3T3 (fibroblasts)) was above 167 µM throughout. Further, the “Activity (%) [10^−5 mol · l^−1 K = 100%]” value in experiment [3] is recorded as 107%.

On to `Fc1cccc(Nc2nc(Cl)nc3nc[nH]c23)c1` [Compound 6, 2-Chloro-6-(3-fluoroanilino)purine], for which the GI50 (in experiment [1]; in experiment [2]; with NIH-3T3 (fibroblasts)) was above 167 µM in each case. Also, the “Activity (%) [10^−5 mol · l^−1 K = 100%]” value in experiment [3] amounted to 120%.

Consider `Oc1cccc(Nc2nc(Cl)nc3nc[nH]c23)c1` [Compound 9, 2-Chloro-6-(3-hydroxyanilino)purine], for which the GI50 (in experiment [1]; in experiment [2]; with NIH-3T3 (fibroblasts)) was above 167 µM each time. Further, the “Activity (%) [10^−5 mol · l^−1 K = 100%]” value in experiment [3] is 115.4%.

Turning to `COc1cccc(Nc2nc(Cl)nc3nc[nH]c23)c1` [Compound 12, 2-Chloro-6-(3-methoxyanilino)purine], the GI50 (in experiment [1]; in experiment [2]; with NIH-3T3 (fibroblasts)) was above 167 µM in each case. The “Activity (%) [10^−5 mol · l^−1 K = 100%]” value in experiment [3] is listed as 132.3%.

`Fc1nc(Nc2ccccc2)c2nc[nH]c2n1` [Compound 40]: the GI50 (in experiment [1]; in experiment [2]; in the experiment with NIH-3T3 (fibroblasts)) was above 167 µM throughout. The “Activity (%) [10^−5 mol · l^−1 K = 100%]” value in experiment [3] came out at 107%.

As for `Fc1nc(Nc2cccc(Cl)c2)c2nc[nH]c2n1` [Compound 42], the GI50 (in experiment [1]; in experiment [2]; with NIH-3T3 (fibroblasts)) was above 167 µM each time. Further, in experiment [3], the “Activity (%) [10^−5 mol · l^−1 K = 100%]” value worked out at 121%.

As to `Oc1cccc(Nc2nc(F)nc3[nH]cnc23)c1` [Compound 48], the 50% growth inhibitory concentration (GI50) (in experiment [1]; in experiment [2]; in the experiment with NIH-3T3 (fibroblasts)) was above 167 µM each time. Also, in experiment [3], the “Activity (%) [10^−5 mol · l^−1 K = 100%]” value turned out to be 100.3%.

For `COc1cccc(Nc2nc(F)nc3nc[nH]c23)c1` [Compound 51, 2-Fluoro-6-(3-methoxyanilino)purine], the GI50 (in experiment [1]; in experiment [2]; in the experiment on NIH-3T3 (fibroblasts)) was above 167 µM in each case. In addition, the “Activity (%) [10^−5 mol · l^−1 K = 100%]” value in experiment [3] worked out at 117.2%.

Turning to `Nc1nc(Nc2cccc(Cl)c2)c2nc[nH]c2n1` [Compound 66], the GI50 (in experiment [1]; in experiment [2]; in the experiment on NIH-3T3 (fibroblasts)) was above 167 µM throughout. In experiment [3], the “Activity (%) [10^−5 mol · l^−1 K = 100%]” value is listed as 122%.

Regarding `Nc1nc(Nc2cccc(O)c2)c2nc[nH]c2n1` [Compound 72], the concentration for 50% growth inhibition (GI50) (in experiment [1]; in experiment [2]; in the experiment on NIH-3T3 (fibroblasts)) was above 167 µM each time. The “Activity (%) [10^−5 mol · l^−1 K = 100%]” value in experiment [3] is reported as 119.8%.

`Fc1cccc(Nc2nc(S)nc3[nH]cnc23)c1` [Compound 83]: the GI50 (in experiment [1]; in experiment [2]; with NIH-3T3 (fibroblasts)) was above 167 µM in each case. In experiment [3], the “Activity (%) [10^−5 mol · l^−1 K = 100%]” value was found to be 133.5%.

With `c1coc(CNc2ncnc3nc[nH]c23)c1` [Kinetin, 6-furfurylaminopurine, reference compound], the GI50 (in experiment [1]; in experiment [2]; in the experiment on NIH-3T3 (fibroblasts)) was above 167 µM in each case. The “Activity (%) [10^−5 mol · l^−1 K = 100%]” value in experiment [3] came to 100%.
